≈ marks a conversion by molar mass, not a printed value. Non-standard residues stand in square brackets, D forms with d. Residues, ends and D or L forms follow the SMILES beside them. No end group written: not given here. rhodamine = not defined here
Tests used:
[1] = system: proteases secreted by Candida albicans; assay: Peptide stability in the supernatant of Candida albicans (HPLC); assay type: in vitro ADME; settings: peptide 186 μg/mL = 100 μM in 100 μL filtered supernatant, 37 °C, 24 h; RP-HPLC C18, 214 nm; repeated three times
Protocol: The supernatant of Candida albicans was prepared as follows: a single colony of Candida albicans was resuspended in 5 mL of Sabouraud medium and incubated at 37 °C overnight. The culture was then centrifuged at 10000 g for 1 min and the supernatant was filtered using a 0.22 μm MillexH-GV (Merck Millipore). In order to check sterility, an aliquot of the supernatant was incubated at 37 °C for 48 h. The absence of growth was interpreted as a lack of viable microorganism.
100 μL of supernatant was then directly incubated or not with L-Ctl or D-Ctl (186 μg/mL = 100 μM) at 37 °C for 24 h. As a control, each peptide (186 μg/mL = 100 μM) as well as the combination ½ MICD-Ctl + ¼ MICVCZ were incubated in water (100 μL) at 37 °C for 24 h. Samples were then separated using a Dionex HPLC system (Ultimate 3000) on a Nucleosil reverse-phase 300–5C18-column (4.6 × 250 mm; particle size: 5 μm; porosity, 300 Å) (Macherey Nagel). Absorbance was monitored at 214 nm and the solvent system consisted of 0.1% (v/v) TFA in water (solvent A) and 0.09% (v/v) TFA in 70% (v/v) acetonitrile-water (solvent B). Elution was performed at a flow rate of 700 μL/min with a gradient of solvent B as indicated on the chromatograms. Each peak was manually collected.

[2] = system: Candida albicans (ATCC 10231); assay: microbe, parasite or virus in culture; assay type: cell-based; settings: for minimal inhibitory concentration (MIC): ATCC 10231, 24 h
Protocol: Candida albicans (ATCC© 10231^TM) was cultured in Sabouraud medium (Sigma-Aldrich) supplemented with tetracycline (10 μg/mL) and cefotaxime (10 μg/mL) at 37 °C for 24 h. Candida albicans (OD600nm = 0,001) were plated in 96-well plates and treated either with different concentrations of the peptides of interest, and/or with different concentrations of voriconazole (VCZ) (Sigma-Aldrich). As a positive control, cells were treated with 10 μg/mL VCZ. After 24 hours incubation, yeast growth was assessed by optical density OD600nm using a spectrophotometer (Multiscan EX). The MIC of the antifungal agents, defined as the lowest concentration of drug able to inhibit 100% of the growth of a pathogen was determined using a modified Gompertz model.

[3] = system: Candida albicans (ATCC 10231); assay: Antifungal combination test D-Ctl + voriconazole (FIC index); assay type: cell-based
Protocol: Candida albicans (ATCC© 10231^TM) was cultured in Sabouraud medium (Sigma-Aldrich) supplemented with tetracycline (10 μg/mL) and cefotaxime (10 μg/mL) at 37 °C for 24 h. Candida albicans (OD600nm = 0,001) were plated in 96-well plates and treated either with different concentrations of the peptides of interest, and/or with different concentrations of voriconazole (VCZ) (Sigma-Aldrich). As a positive control, cells were treated with 10 μg/mL VCZ. After 24 hours incubation, yeast growth was assessed by optical density OD600nm using a spectrophotometer (Multiscan EX). The efficiency of the combination between D-Ctl and VCZ was determined by the calculation of the Fractional inhibitory concentration index (FICI) according to the following formula: FICI = FICD-Ctl + […] = (MICD-Ctl in combination/MICD-Ctl alone) + ([…] in combination/[…] alone) . According to EUCAST[38], the effect of the combination is synergistic if FICI ≤ 0,5, additive if 0,5 < FICI ≤ 1, indifferent if 1 < FICI < 2 and antagonistic if FICI ≥ 2.

Candida albicans = assay: Time-lapse video microscopy of Candida albicans with rhodamine-labelled peptides; assay type: cell-based; settings: for entry into C. albicans: 10 × MIC, 30 min incubation at 37 °C, fluorescence microscopy
Protocol: Diluted precultures (1/1000) of Candida albicans were incubated for 1 hour at 37 °C without agitation in glass bottom μ-Dish^35mm,high (Ibidi) previously treated with poly-L-lysine. […] To perform time-lapse video microscopy, the peptides were removed and replaced by Sabouraud medium. Yeasts were then plated at 37 °C, 5% CO2, on a Nikon Eclipse Ti inverted microscope equipped with an Andor Zyla sCMOS camera and a 60X objective. To prevent evaporation, a layer of mineral oil (Sigma) was added on top of the media prior imaging. Images (fluorescence and phase contrast) were captured every 10 min for 20 hours using Nikon NIS-Elements AR software, and processed with ImageJ.

| Compound | stability in the supernatant of Candida albicans [1] | minimal inhibitory concentration (MIC) [2] [µg/mL] | entry into C. albicans (Candida albicans) | other results |
| --- | --- | --- | --- | --- |
| CSCC[C@@H](NC(=O)[C@@H](CO)NC(=O)[C@H](N)CCCNC(=N)N)C(=O)N[C@H](CCCNC(=N)N)C(=O)N[C@H](CC(C)C)C(=O)N[C@H](CO)C(=O)N[C@H](Cc1ccccc1)C(=O)N[C@H](CCCNC(=N)N)C(=O)N[C@H](C)C(=O)N[C@H](CCCNC(=N)N)C(=O)NCC(=O)N[C@H](Cc1ccc(O)cc1)C(=O)NCC(=O)N[C@H](Cc1ccccc1)C(=O)N[C@H](CCCNC(=N)N)C(=O)O [D-Ctl, D-Cateslytin] (H-[dR][dS][dM][dR][dL][dS][dF][dR][dA][dR]G[dY]G[dF][dR]-OH) | still present | 5.5 (≈ 2.96 µM) | – | – |
| CSCC[C@H](NC(=O)[C@H](CO)NC(=O)[C@@H](N)CCCNC(=N)N)C(=O)N[C@@H](CCCNC(=N)N)C(=O)N[C@@H](CC(C)C)C(=O)N[C@@H](CO)C(=O)N[C@@H](Cc1ccccc1)C(=O)N[C@@H](CCCNC(=N)N)C(=O)N[C@@H](C)C(=O)N[C@@H](CCCNC(=N)N)C(=O)NCC(=O)N[C@@H](Cc1ccc(O)cc1)C(=O)NCC(=O)N[C@@H](Cc1ccccc1)C(=O)N[C@@H](CCCNC(=N)N)C(=O)O [L-Ctl, Cateslytin] (H-RSMRLSFRARGYGFR-OH) | the peak of L-Ctl disappeared | 7.9 (≈ 4.25 µM) | – | – |
| C[C@@H](c1ncncc1F)[C@](O)(Cn1cncn1)c1ccc(F)cc1F [VCZ, voriconazole] | – | – | – | FIC (fractional inhibitory concentration) of the single agent in the combination ([3]; MIC in combination / MIC alone): 0.5; fold decrease of VCZ concentration by adding D-Ctl ([3]; with ½ MIC D-Ctl): 4; concentration of VCZ in the combination (¼ MIC VCZ) ([3]; with ½ MIC D-Ctl, kills 100% of C. albicans): 0.018 µg/mL; MIC ([2]; Candida albicans, ATCC10231, lowest concentration inhibiting 100% of C. albicans growth, Sabouraud medium, 24 h, OD600nm, average of at least three experiments, read-out: minimal inhibitory concentration (MIC)): 0.07 µg/mL (≈ 0.2 µM) |
| Rho-D-Ctl: D-Ctl with a rhodamine moiety on the N-terminal end, used for video microscopy (rhodamine-[dR][dS][dM][dR][dL][dS][dF][dR][dA][dR]G[dY]G[dF][dR]; reading uncertain) | – | – | able to enter | effect on colonies totally invaded (Candida albicans; Rho-D-Ctl 10 × MIC (55 μg/mL), time-lapse video microscopy): systematic arrest of fungal growth and ongoing cellular divisions |
| Rho-L-Ctl: L-Ctl with a rhodamine moiety on the N-terminal end, used for video microscopy (rhodamine-RSMRLSFRARGYGFR; reading uncertain) | – | – | able to enter | – |

Reference: article PMC6006364, “D-Cateslytin: a new antifungal agent for the treatment of oral Candida albicans associated infections” (Scientific Reports, 2018)
